Laboratory results: the NIST ThermoML archive (doi:10.1021/je300603d)
± gives the expanded uncertainty stated by the source.

Assay: mn = molality of the nth substance listed, in mol/kg
Conditions: 101 kPa, Liquid; for mass density: Vibrating tube method; for viscosity: Falling or rolling sphere viscometry; for electrical conductivity: Alternating current cell with electrodes

For `F[B-](F)(F)F.[Na+]` [sodium tetrafluoroborate] + CCCCn1cc[n+](C)c1.F[B-](F)(F)F, the mass density (318.15 K, m1 = 0.1159) was 1194 ± 0.4 kg/m3, the mass density (318.15 K, m1 = 0.1377) was 1195.5 ± 0.4 kg/m3 and the mass density (318.15 K, m1 = 0.1739) was 1197.3 ± 0.4 kg/m3. The viscosity (328.15 K, m1 = 0.058) was 31.69 ± 0.32 mPa·s, the viscosity (328.15 K, m1 = 0.1159) was 33.98 ± 0.34 mPa·s and the viscosity (328.15 K, m1 = 0.1739) was 35.69 ± 0.36 mPa·s. The mass density (328.15 K, m1 = 0.0273) was 1182.2 ± 0.4 kg/m3, the mass density (328.15 K, m1 = 0.054) was 1183.6 ± 0.4 kg/m3 and the mass density (328.15 K, m1 = 0.058) was 1183.9 ± 0.4 kg/m3. The mass density (328.15 K, m1 = 0.0676) was 1184.9 ± 0.4 kg/m3, the mass density (328.15 K, m1 = 0.0903) was 1185.5 ± 0.4 kg/m3 and the mass density (328.15 K, m1 = 0.1069) was 1186.6 ± 0.4 kg/m3. For the same compound, the mass density (328.15 K, m1 = 0.1159) was 1187 ± 0.4 kg/m3, the mass density (328.15 K, m1 = 0.1377) was 1188.4 ± 0.4 kg/m3 and the mass density (328.15 K, m1 = 0.1739) was 1190.3 ± 0.4 kg/m3. For the same compound, the electrical conductivity (338.15 K, m1 = 0.058) was 1.5 ± 0.008 S/m, the electrical conductivity (338.15 K, m1 = 0.1159) was 1.464 ± 0.007 S/m and the electrical conductivity (338.15 K, m1 = 0.1739) was 1.425 ± 0.007 S/m. The viscosity (338.15 K, m1 = 0.058) was 22.75 ± 0.23 mPa·s, the viscosity (338.15 K, m1 = 0.1159) was 23.85 ± 0.24 mPa·s and the viscosity (338.15 K, m1 = 0.1739) was 23.94 ± 0.24 mPa·s. It also gave a mass density (338.15 K, m1 = 0.0273) of 1175.3 ± 0.4 kg/m3, a mass density (338.15 K, m1 = 0.054) of 1177 ± 0.4 kg/m3 and a mass density (338.15 K, m1 = 0.058) of 1176.8 ± 0.4 kg/m3. For the same compound, the mass density (338.15 K, m1 = 0.0676) was 1177.9 ± 0.4 kg/m3, the mass density (338.15 K, m1 = 0.0903) was 1178.6 ± 0.4 kg/m3 and the mass density (338.15 K, m1 = 0.1069) was 1179.6 ± 0.4 kg/m3. For the same compound, the mass density (338.15 K, m1 = 0.1159) was 1180 ± 0.4 kg/m3, the mass density (338.15 K, m1 = 0.1377) was 1181.5 ± 0.4 kg/m3 and the mass density (338.15 K, m1 = 0.1739) was 1183.3 ± 0.4 kg/m3. The viscosity (348.15 K, m1 = 0.058) was 16.93 ± 0.17 mPa·s, the viscosity (348.15 K, m1 = 0.1159) was 17.63 ± 0.18 mPa·s and the viscosity (348.15 K, m1 = 0.1739) was 17.97 ± 0.18 mPa·s. It also gave a mass density (348.15 K, m1 = 0.0273) of 1168.4 ± 0.4 kg/m3, a mass density (348.15 K, m1 = 0.054) of 1169.8 ± 0.4 kg/m3 and a mass density (348.15 K, m1 = 0.058) of 1169.8 ± 0.4 kg/m3. The mass density (348.15 K, m1 = 0.0676) was 1171 ± 0.4 kg/m3, the mass density (348.15 K, m1 = 0.0903) was 1171.7 ± 0.4 kg/m3 and the mass density (348.15 K, m1 = 0.1069) was 1172.7 ± 0.4 kg/m3. For the same compound, the mass density (348.15 K, m1 = 0.1159) was 1173.1 ± 0.4 kg/m3, the mass density (348.15 K, m1 = 0.1377) was 1174.6 ± 0.4 kg/m3 and the mass density (348.15 K, m1 = 0.1739) was 1176.4 ± 0.4 kg/m3. The electrical conductivity (358.15 K, m1 = 0.058) was 2.47 ± 0.01 S/m, the electrical conductivity (358.15 K, m1 = 0.1159) was 2.4 ± 0.01 S/m and the electrical conductivity (358.15 K, m1 = 0.1739) was 2.35 ± 0.01 S/m. The viscosity (358.15 K, m1 = 0.058) was 13 ± 0.13 mPa·s, the viscosity (358.15 K, m1 = 0.1159) was 13.53 ± 0.14 mPa·s and the viscosity (358.15 K, m1 = 0.1739) was 14.01 ± 0.14 mPa·s. It also gave a mass density (358.15 K, m1 = 0.0273) of 1161.6 ± 0.4 kg/m3, a mass density (358.15 K, m1 = 0.054) of 1163 ± 0.4 kg/m3 and a mass density (358.15 K, m1 = 0.058) of 1162.7 ± 0.4 kg/m3. The mass density (358.15 K, m1 = 0.0676) was 1164.2 ± 0.4 kg/m3, the mass density (358.15 K, m1 = 0.0903) was 1164.8 ± 0.4 kg/m3 and the mass density (358.15 K, m1 = 0.1069) was 1165.9 ± 0.4 kg/m3. It also gave a mass density (358.15 K, m1 = 0.1159) of 1166.3 ± 0.4 kg/m3, a mass density (358.15 K, m1 = 0.1377) of 1167.7 ± 0.4 kg/m3 and a mass density (358.15 K, m1 = 0.1739) of 1169.6 ± 0.4 kg/m3. It also gave an electrical conductivity (378.15 K, m1 = 0.058) of 3.66 ± 0.02 S/m, an electrical conductivity (378.15 K, m1 = 0.1159) of 3.57 ± 0.02 S/m and an electrical conductivity (378.15 K, m1 = 0.1739) of 3.5 ± 0.02 S/m. It also gave an electrical conductivity (398.15 K, m1 = 0.058) of 5.04 ± 0.03 S/m, an electrical conductivity (398.15 K, m1 = 0.1159) of 4.93 ± 0.03 S/m and an electrical conductivity (398.15 K, m1 = 0.1739) of 4.84 ± 0.02 S/m. For the same compound, the electrical conductivity (418.15 K, m1 = 0.058) was 6.58 ± 0.03 S/m, the electrical conductivity (418.15 K, m1 = 0.1159) was 6.45 ± 0.03 S/m and the electrical conductivity (418.15 K, m1 = 0.1739) was 6.35 ± 0.03 S/m. The electrical conductivity (438.15 K, m1 = 0.058) was 8.24 ± 0.04 S/m, the electrical conductivity (438.15 K, m1 = 0.1159) was 8.11 ± 0.04 S/m and the electrical conductivity (438.15 K, m1 = 0.1739) was 7.98 ± 0.04 S/m. For the same compound, the electrical conductivity (458.15 K, m1 = 0.058) was 10 ± 0.05 S/m, the electrical conductivity (458.15 K, m1 = 0.1159) was 9.85 ± 0.05 S/m and the electrical conductivity (458.15 K, m1 = 0.1739) was 9.7 ± 0.05 S/m.
